Here are results for nine compounds from US10023543B2 (CELGENE QUANTICEL RESEARCH, INC., priority 2014, dated 2018).

SMILES strings stand for the structures. Counter-ions that a name gives are not always drawn. Like-named read-outs stand apart in the source and are kept apart here.

What is called IC50 is the point on the concentration scale where inhibition reaches its midpoint.

One experiment concerns THP-1 (AML) cells. The experiment can be described thus: LSD1 CD11b cellular assay (flow cytometry). It is filed as cell-based. The conditions noted are these: Homo sapiens, THP-1, 96 h. For orientation: Flow cytometry measures light scatter and fluorescence of single cells or particles in a stream.
In another experiment the test system is Kasumi-1. The experiment can be described thus: Kasumi-1 AML cell line proliferation assay (Cell-MTS assay). It is filed as cell-based. The conditions noted are these: Homo sapiens, 168 hours. The source says:
Colorimetric cellular assay to assess the ability of LSD-1 small molecule inhibitors to effect the proliferation of the established AML cancer cell line Kasumi-1.
This Cell-MTS assay is a 7-day plate based colorimetric assay which quantifies the amount of newly generated NADH in the presence and absence of test compound. These NADH levels are used as a proxy for the quantification of cancer cell proliferation.
The established cancer cell line Kasumi-1 with a verified p53 mutation were purchased from American Type Culture Collection (ATCC) and routinely passaged according to ATCC published protocols. For routine assay these cells were seeded at a density of 20,000 cells per 96-well. […] At the end of this compound incubation period, 80 μl of media is removed and 20 μL of CellTiter 96® AQueous Non-Radioactive Cell Proliferation Assay solution (Promega) is added. The cells are incubated until the OD490 is >0.6. IC50 values are calculated using the IDBS XLfit software package and include background subtracted OD490 values and normalization to DMSO controls.
Background: Tetrazolium dyes change colour on reduction, which living cells bring about.

The target in a further experiment is full-length human LSD1 (Homo sapiens (Human), UniProt O60341). Nature of the experiment: In vitro enzyme inhibition assay LSD-1 (TR-FRET). The experiment is classed as biochemical. The conditions noted are these: H3K4me1-biotin peptide.
[1] abbreviates: CD11b expressing cells, 4 days, read-out: THP-1 IC50.

Protocol for full-length human LSD1: This assay determines the ability of a test compound to inhibit LSD1 demethylase activity.
The enzymatic assay of LSD1 activity is based on Time Resolved-Fluorescence Resonance Energy Transfer (TR-FRET) detection.
Enzymatic reaction is terminated within 15 minutes if 0.5 LSD1 enzyme is used in the plate.
The ability of the compounds disclosed herein to inhibit LSD1 activity was quantified and the respective IC50 value was determined.

`Cn1c(N2CCC(N)CC2)nc(-c2ccc(C#N)c(F)c2)c(-c2ccc3[nH]ncc3c2)c1=O` [Example 88, 4-[2-(4-aminopiperidin-1-yl)-5-(1H-indazol-5-yl)-1-methyl-6-oxopyrimidin-4-yl]-2-fluorobenzonitrile]: the IC50 in the experiment with THP-1 (AML) cells (setting [1]) was less than 0.1 µM; with Kasumi-1, less than 100 nM.

Regarding `Cc1ccc(-c2c(-c3ccc(C#N)cc3)nc(N3CCC(N)CC3)n(C)c2=O)cc1` [Example 1, 4-(2-(4-aminopiperidin-1-yl)-1-methyl-6-oxo-5-p-tolyl-1,6-dihydropyrimidin-4-yl)benzonitrile, HCl salt], the IC50 in the experiment with THP-1 (AML) cells (read-out: THP-1 IC50 (μM)) is less than 0.1 µM; in the experiment with Kasumi-1, less than 100 nM.

Take `Cn1c(N2CCC(N)CC2)nc(-c2ccc(C#N)c(F)c2)c(-c2cnn(CC(F)(F)F)c2)c1=O` [Example 34, 4-{2-(4-amino-piperidin-1-yl)-1-methyl-6-oxo-5-[1-(2,2,2-trifluoro-ethyl)-1H-pyrazol-4-yl]-1,6-dihydro-pyrimidin-4-yl}-2-fluoro-benzonitrile]: the IC50 is less than 0.1 µM in the experiment with THP-1 (AML) cells (setting [1]) and less than 100 nM in the experiment with Kasumi-1.

Take `Cn1c(N2CCC(N)CC2)nc(-c2ccc(C#N)c(F)c2)c(-c2ccc(OCCO)cc2)c1=O` [Example 96, 4-[2-(4-aminopiperidin-1-yl)-5-[4-(2-hydroxyethoxy)phenyl]-1-methyl-6-oxopyrimidin-4-yl]-2-fluorobenzonitrile]: the half-inhibitory concentration (IC50) is less than 100 nM against full-length human LSD1 and less than 0.1 µM in the experiment on THP-1 (AML) cells (setting [1]).

Consider `Cn1cc2cc(-c3c(-c4ccc(C#N)c(F)c4)nc(N4CCCNCC4)n(C)c3=O)ccc2n1` [Example 66, 4-[2-[1,4]diazepan-1-yl-1-methyl-5-(2-methyl-2H-indazol-5-yl)-6-oxo-1,6-dihydro-pyrimidin-4-yl]-2-fluoro-benzonitrile], for which the figures for the IC50 in the experiment with THP-1 (AML) cells (setting [1]) and in the experiment on Kasumi-1 were less than 0.1 µM and less than 100 nM, respectively.

Regarding `Cn1cc2cc(-c3c(-c4ccc(C#N)cc4)nc(N4CCC(N)CC4)n(C)c3=O)ccc2n1` [Example 24, 4-[2-(4-aminopiperidyl)-1-methyl-5-(2-methyl(2H-indazol-5-yl))-6-oxohydropyrimidin-4-yl]benzenecarbonitrile], the IC50 in the experiment on THP-1 (AML) cells (setting [1]) was less than 0.1 µM; with Kasumi-1 it was less than 100 nM.

For `Cn1c(N2CCC(N)CC2)nc(-c2ccc(C#N)c(F)c2)c(-c2ccc3c(cnn3C)c2)c1=O` [Example 35, 4-[2-(4-amino-piperidin-1-yl)-1-methyl-5-(1-methyl-1H-indazol-5-yl)-6-oxo-1,6-dihydro-pyrimidin-4-yl]-2-fluoro-benzonitrile], the results for the IC50 in the experiment with THP-1 (AML) cells (setting [1]) and in the experiment on Kasumi-1 were less than 0.1 µM and less than 100 nM, respectively.

As to `COc1ccc(-c2c(-c3ccc(C#N)cc3)nc(N3CCC(N)CC3)n(C)c2=O)cc1F` [Example 5], the IC50 with THP-1 (AML) cells (read-out: THP-1 IC50 (μM)) is less than 0.1 µM; in the experiment on Kasumi-1, less than 100 nM.

For `CN(C)C1CCN(c2nc(-c3ccc(C#N)c(F)c3)c(-c3ccc4nn(C)cc4c3)c(=O)n2C)CC1` [Example 71, 4-[2-(4-dimethylamino-piperidin-1-yl)-1-methyl-5-(2-methyl-2H-indazol-5-yl)-6-oxo-1,6-dihydro-pyrimidin-4-yl]-2-fluoro-benzonitrile], the IC50 in the experiment with THP-1 (AML) cells (setting [1]) was less than 0.1 µM; in the experiment on Kasumi-1, less than 100 nM.
